From patent US8912224B2, “Substituted 2-(chroman-6-yloxy)-thiazoles and their use as pharmaceuticals” (Sanofi, priority 2011, dated 2014)

How the values were obtained:
human NCX1 [1] = target: T1, human NCX1 (Homo sapiens (Human), UniProt P32418); experiment: Inhibition of Ca2+ influx into cells (NCX1 reverse mode), FLIPR Fluo-4 assay; format: cell-based; conditions: inhibition of NCX1 in reverse mode (Ca2+ influx into cells); read-out: NCX1rv IC50
Text: (§1) The sodium/calcium exchanger NCX1 can transport calcium ions and sodium ions through the cell membrane. The transport is an exchange of Ca^2+and Na^+in two directions depending on membrane potential and ion gradients. At the first direction, named “forward mode” or “calcium export mode”, Ca^2+is transported out of the cell and Na^+ is transported into the cell. At the other direction, named “reverse mode” or “calcium import mode”, the transport directions are vice versa. The effect of the compounds of the invention on NCX1 was determined in CHO cells stably expressing human NCX1 (gene symbol SLC8A1; cf. WO 2009/115238). The assay is based on the monitoring of intracellular Ca^2+concentrations using a calcium-sensitive fluorescence dye which is detected by means of a FLIPR device (Fluorimetric Imaging Plate Reader, Molecular Devices).
Assay Technology—Reverse Mode
The assay is based on the monitoring of intracellular Ca^2+concentrations using the calcium-sensitive dye Fluo-4. CHO cells expressing NCX1 were loaded with the dye by means of the acetoxymethyl ester Fluo-4 AM (Invitrogen, F14202), which is cleaved intracellularly by esterase activity to yield the charged species of free Fluo-4. After an preincubation period with the test compound, Gramicidine (Sigma, G5002) was added. Gramicidine is an ionophor for Na^+ions mediating an increase of intracellular Na^+ions. Consequently, intracellular Na^+ions are exchanged against extracellular Ca^2+ions (Ca^2+influx, reverse mode). The intracellular elevation of Ca^2+ ions was detected by measuring the fluorescence of Fluo-4 at a wavelength of 520 nm by a FLIPR device.
Briefly, for the reverse mode transport assay 18000 cells per well were seeded into a 96 well microplate (Corning COSTAR 3904) and incubated overnight in culture medium (1× Nut Mix F12 (Ham) (Gibco, 21765-029); 10% (v/v) fetal calf serum (PAA Gold, A15-649); 450 μg/ml Geneticin (Gibco, 10131-027)). A total volume of 100 μl medium per well was used. For the preparation of the FLIPR assay, the culture medium was removed from the plates and 100 μl of dye solution (2 μM Fluo-4 AM; 0.02% (v/v) Pluronic F-127 (20%, Invitrogen, P3000MP); 0.1% (v/v) bovine albumin solution (30% (v/v), Sigma, A9205) in assay buffer (133.8 mM NaCl (Sigma, S5886); 4.7 mM KCl (Sigma, P3911); 1.25 mM MgCl2 (Merck, 1.05833.0250); 3.5 mM CaCl2 (Merck, 1.02083.0250); 5 mM glucose (Sigma, G7021); 10 mM Hepes (Sigma, H4034); 0.01% (v/v) Pluronic F-127 (5%, Sigma, P2443); 2.5 mM Probenecid (Maybridge, SB00915EB); pH 7.4)) were added into each well. The plates were incubated in the dark at room temperature for 80 min. After the incubation period, the dye solution was removed and the wells were washed with 100 μl of assay buffer. Then 80 μl of a solution of the test compound in assay buffer in different concentrations were added into the wells. The plates were incubated at 16° C. for 45 min. Meanwhile a 60 μM solution of Gramicidine in assay buffer (4° C.) was prepared and stored in the wells of a 96 well microplate (96 well microplate, polypropylene, U-shape (Greiner Bio-One, 650201)) at 4° C. until measurement was started. The fluorescence monitoring was performed at 240 measuring points with measurement intervals of 2 sec. After the fifth measuring point, 40 μl of the Gramicidine solution were added to each well of the assay plates to give a final Gramicidine concentration of 20 μM. For the determination of the IC50 values the minimal fluorescence value was subtracted from the maximal fluorescence value for all measuring points. The calculation of the IC50 values via the percentage inhibitions of Ca^2+influx into cells (reverse mode) effected by the test compound was performed in Biost@t Speed 2.0.

Sprague-Dawley rats = experiment: In vivo method for determining the effect on heart contractility (left ventricular dp/dtmax) in anesthetized rats; conditions: rat, versus solvent control; for change in vivo at 0.1 mg/kg / change in vivo at 0.3 mg/kg / change in vivo at 1 mg/kg: iv, i.v. bolus injection, read-out: Contractility increase (%); for Contractility increase (%): i.v. infusion
Procedure: B) In vivo Method for Determining the Effect on Heart Contractility Adult male Sprague-Dawley rats (Harlan […], Germany) weighing 340 to 370 g were anesthetized with pentobarbital (100 mg/kg i.p.) and ventilated with a mixture of oxygen (40%) and room air (60%) at a tidal volume of 1 ml/100 g at 60 breaths/min. Body temperature was maintained at 36.5±0.3° C. with a heating lamp and was monitored with a rectal thermo sensor. Systemic blood pressure was measured in the left carotid artery using a pressure transducer (Combitrans; B. Braun Melsungen AG, Melsungen, Germany) connected to a DC-bridge-amplifier (PLUGSYS/ADC Type 663; Harvard Apparatus GmbH, March-Hugstetten, Germany). The electrocardiogram was measured as lead II via subcutaneously placed electrodes connected to a Heart-Rate-Module ([…] Type 669; Harvard Apparatus GmbH, March-Hugstetten, Germany). A micro-tip catheter (2 French, SPR-320; Millar Instruments, Houston, Tex., USA) was placed via the right carotid artery into the left ventricle, and the left ventricular pressure (LVP) and the end diastolic pressure (EDP) were continuously measured. Registration of the hemodynamic data was performed via an analog digital converter by a personal computer using Notocord software (HEM version 3.5). Left ventricular contractility (dp/dtmax) and relaxation (dp/dtmin) were calculated from the LVP signal. For intravenous administration of the test compounds, the left jugular vein was prepared and a PP-50 catheter was inserted. Test compounds were administered either by intravenous bolus injection or by intravenous infusion by means of an infusion pump (Unita; B. Braun Melsungen AG, Melsungen, Germany). […] In a typical experiment, several dosages of the test compound were administered subsequently at increasing doses. Statistical significance of the data obtained with drug vs control experiments, in which solvent was administered, was evaluated with the 2-sided ANOVA test (program Everstat). Increases in left ventricular contractility (percent increase) by example compounds are given in Table 3 in comparison to control experiments in which solvent was administered.

human NCX1 [2] = target: T1, human NCX1; experiment: Inhibition of Ca2+ efflux out of cells (NCX1 forward mode), FLIPR assay; format: cell-based; conditions: CHO cells stably expressing human NCX1, Ionomycin 2 μM, read-out: NCX1fw IC50
Text: as §1
Assay Technology—Forward Mode
The assay is based on the monitoring of intracellular Ca^2+concentrations using the PBX Calcium Assay Kit from BD (Becton, Dickinson and Company) with calcium indicator dye 51-9000177BKa (BD, 640177), CHO cells expressing NCX1 were loaded with the dye, and after a preincubation period with the test compound, lonomycin (Calbiochem, 407950) was added. Ionomycin is an ionophor for Ca^2+ions mediating an increase of intracellular Ca^2+ions. Consequently, intracellular Ca^2+ions are exchanged against extracellular Na^+ions (Ca^2+efflux, forward mode). The decrease of intracellular Ca^2+ions was detected by measuring the fluorescence of the calcium indicator dye at a wavelength of 520 nm by a FLIPR device.
Briefly, similarly as for the reverse mode, for the forward mode transport assay 18000 cells per well were seeded into a 96 well microplate (Corning COSTAR 3904) and incubated overnight in culture medium (cf. above). A total volume of 100 μl medium per well was used. For the preparation of the FLIPR assay, the culture medium was removed from the plates and 100 μl of assay buffer (133.8 mM NaCl (Sigma, S5886); 4.7 mM KCl (Sigma, P3911); 1.25 mM MgCl2 (Merck, 1.05833.0250); 3.5 mM CaCl2 (Merck, 1.02083.0250); 5 mM glucose (Sigma. G7021); 10 mM Hepes (Sigma, H4034); pH 7.4)) were added to each well in a washing step. Assay buffer was removed, and 100 μl of a solution of the test compound in assay buffer in different concentrations were added into the wells. Further, 100 μl of dye solution (0.09% (v/v) calcium indicator dye, 9.1% (v/v) signal enhancer (from PBX Calcium Assay Kit); in assay buffer) were added into each well. The plates were incubated in the dark at room temperature for 60 min. Meanwhile a 10 μM solution of lonomycin in assay buffer (additionally containing 0.05% fetal calf serum (cf. above); 4° C.) was prepared and stored in the wells of a 96 well microplate (96 well microplate, polypropylene, U-shape (Greiner Bio-One, 650201)). The fluorescence monitoring was performed at 60 measuring points with measurement intervals of 2 sec. After the fifth measuring point, 50 μl of the lonomycin solution were added to each well of the assay plate to give a final lonomycin concentration of 2 μM. For the determination of the IC50 values the minimal fluorescence value was subtracted from the maximal fluorescence value for the fifteenth to fifty-fifth measuring points. The calculation of the IC50 values via the percentage inhibitions of Ca^2+efflux out of cells (forward mode) effected by the test compound was performed in Biost@t Speed 2.0. “NCX1fw IC50” in Table 2 means the IC50 value for inhibition of NCX1 in forward mode (in μM (micromol/liter)).

T1 sequence (P32418 whole entry, looked up): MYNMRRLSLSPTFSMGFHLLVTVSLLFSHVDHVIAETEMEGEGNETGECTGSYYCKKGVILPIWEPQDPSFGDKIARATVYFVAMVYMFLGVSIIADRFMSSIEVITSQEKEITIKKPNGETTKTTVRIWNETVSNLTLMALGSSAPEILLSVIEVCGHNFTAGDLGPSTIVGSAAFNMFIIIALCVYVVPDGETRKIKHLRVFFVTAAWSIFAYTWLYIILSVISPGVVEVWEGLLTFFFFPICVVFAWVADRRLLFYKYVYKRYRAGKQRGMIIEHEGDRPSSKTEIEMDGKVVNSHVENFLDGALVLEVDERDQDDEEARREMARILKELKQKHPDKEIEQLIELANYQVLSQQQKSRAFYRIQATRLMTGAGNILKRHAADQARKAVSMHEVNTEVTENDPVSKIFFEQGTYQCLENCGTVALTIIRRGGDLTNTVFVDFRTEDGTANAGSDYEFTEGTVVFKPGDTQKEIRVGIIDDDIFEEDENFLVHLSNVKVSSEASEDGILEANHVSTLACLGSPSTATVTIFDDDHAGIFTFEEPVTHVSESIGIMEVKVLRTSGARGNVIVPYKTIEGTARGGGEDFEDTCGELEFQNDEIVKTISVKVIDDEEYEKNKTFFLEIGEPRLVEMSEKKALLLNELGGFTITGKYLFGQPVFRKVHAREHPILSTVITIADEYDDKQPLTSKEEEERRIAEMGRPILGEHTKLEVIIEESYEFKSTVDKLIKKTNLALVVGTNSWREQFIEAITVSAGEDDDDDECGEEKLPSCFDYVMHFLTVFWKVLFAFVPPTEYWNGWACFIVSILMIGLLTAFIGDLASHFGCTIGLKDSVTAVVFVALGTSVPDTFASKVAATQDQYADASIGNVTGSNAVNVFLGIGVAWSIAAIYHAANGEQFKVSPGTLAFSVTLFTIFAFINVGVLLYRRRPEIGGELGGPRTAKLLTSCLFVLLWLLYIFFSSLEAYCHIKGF

Compound | IC50 (human NCX1 [1]) [nM] | IC50 (human NCX1 [2]) [nM] | change in vivo at 0.1 mg/kg (Sprague-Dawley rats) [%] | change in vivo at 0.3 mg/kg (Sprague-Dawley rats) [%] | change in vivo at 1 mg/kg (Sprague-Dawley rats) [%] | Contractility increase (%) (Sprague-Dawley rats; 0.03 mg/kg/min) | Contractility increase (%) (Sprague-Dawley rats; 0.1 mg/kg/min)
2-[2-(2,6-Dimethyl-phenyl)-chroman-6-yloxy]-thiazole-5-carboxylic acid [2-(2-oxo-imidazolidin-1-yl)-ethyl]-amide [compound 347] | 1500 |  |  |  |  |  | 
O=C(NC1CC1)c1cnc(Oc2ccc3c(c2)CCC(c2ccccc2)O3)s1 (stereo not drawn) [Example 315, 2-(2-Phenyl-chroman-6-yloxy)-thiazole-5-carboxylic acid cyclopropylamide] |  | 3300 | 28 | 41 | 64 |  | 
Cc1ccccc1C1CCc2cc(Oc3nc(C)c(C(=O)NCc4ccno4)s3)ccc2O1 (stereo not drawn) [Example 334, 4-Methyl-2-(2-o-tolyl-chroman-6-yloxy)-thiazole-5-carboxylic acid (isoxazol-5-ylmethyl)-amide] | 500 | 2100 | 19 | 41 | 59 |  | 
CCCNC(=O)c1cnc(Oc2ccc3c(c2)CCC(c2cc(F)ccc2C)O3)s1 (stereo not drawn) [Example 343, 2-[2-(5-Fluoro-2-methyl-phenyl)-chroman-6-yloxy]-thiazole-5-carboxylic acid propylamide] | 500 | 800 | 20 | 25 | 39 |  | 
Cc1ccccc1[C@@H]1CCc2cc(Oc3ncc(C(=O)NCCOP(=O)([O-])[O-])s3)ccc2O1.[Na+].[Na+] [Example 345, Phosphoric acid mono-(2-{[2-((S)-2-o-tolyl-chroman-6-yloxy)-thiazole-5-carbonyl]-amino}-ethyl)ester disodium salt] |  |  |  |  |  | 32 | 85
CC[C@H](C)[C@H](NC(=O)c1cnc(Oc2ccc3c(c2)CCC(c2cccnc2)O3)s1)C(=O)O (stereo partly drawn) [compound 270, (23,3S)-3-Methyl-2-{[2-(2-pyridin-3-yl-chroman-6-yloxy)-thiazole-5-carbonyl]-amino}-pentanoic acid] | 12500 |  |  |  |  |  | 

Now from value to compound, other results behind:

IC50 (human NCX1 [1]) [nM] | IC50 (human NCX1 [2]) [nM] | Compound | change in vivo at 0.1 mg/kg (Sprague-Dawley rats) [%] | change in vivo at 0.3 mg/kg (Sprague-Dawley rats) [%] | change in vivo at 1 mg/kg (Sprague-Dawley rats) [%] | Contractility increase (%) (Sprague-Dawley rats; 0.03 mg/kg/min) | Contractility increase (%) (Sprague-Dawley rats; 0.1 mg/kg/min)
100 | 200 | Cc1ccccc1[C@@H]1CCc2cc(Oc3ncc(C(=O)NCCO)s3)ccc2O1 [Example 326, 2-((S)-2-o-Tolyl-chroman-6-yloxy)-thiazole-5-carboxylic acid (2-hydroxy-ethyl)-amide] | 67 | 105 | 138 |  | 
500 | 3000 | Cc1ccccc1C1CCc2cc(Oc3ncc(CNC(=O)CN4CCCC4=O)s3)ccc2O1 (stereo not drawn) [Example 327, 2-(2-Oxo-pyrrolidin-1-yl)-N-[2-(2-o-tolyl-chroman-6-yloxy)-thiazol-5-ylmethyl]-acetamide] | 9 | 27 | 55 |  | 
300 | 350 | CCCNC(=O)c1cnc(Oc2ccc3c(c2)CCC(c2ccccc2C)O3)s1 (stereo not drawn) [Example 330, 2-(2-o-Tolyl-chroman-6-yloxy)-thiazole-5-carboxylic acid propylamide] | 50 | 86 | 161 |  | 
400 | 700 | Cc1ccc(F)cc1C1CCc2cc(Oc3ncc(C(=O)NCCO)s3)ccc2O1 (stereo not drawn) [Example 342, 2-[2-(5-Fluoro-2-methyl-phenyl)-chroman-6-yloxy]-thiazole-5-carboxylic acid (2-hydroxy-ethyl)-amide] | 38 | 73 | 146 |  | 
400 |  | Cc1csc(CCNCc2cnc(Oc3ccc4c(c3)CCC(c3ccccc3)O4)s2)n1 (stereo not drawn) [compound 151, [2-(4-Methyl-thiazol-2-yl)-ethyl]-[2-(2-phenyl-chroman-6-yloxy)-thiazol-5-ylmethy]-amine] |  |  |  |  | 
